Results taken from the supplement of paper PMC10307832.

Columns and labels:
Assay in all cases: relative viability (nuclei count vs DMSO), 5 days (fraction); higher = more cells survive
[1] = compound: CC1=C(C(=NN1)C)CC2=C(C3=C(S2)N(C(=O)N(C3=O)C)CC(C)C)C(=O)N4C[C@@H](CO4)O + CC1(C)CCC(c2ccc(Cl)cc2)=C(CN2CCN(c3ccc(C(=O)NS(=O)(=O)c4ccc(N[C@H](CCN5CCOCC5)CSc5ccccc5)c(S(=O)(=O)C(F)(F)F)c4)cc3)CC2)C1 [Navitoclax] (partner 0.5 µM)
Method in brief: (§1)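 Lung cancer cell lines were seeded in 1536-well plates and dosed by pin tool the next day, with either a single drug or a fixed anchor-drug dose combined with five library-drug doses (not always all listed) spaced in √10 steps. Five days later, one step fixed the cells and stained their nuclei (final 0.05% Triton X-100, 1% formaldehyde, 1 ug/ml Hoechst), and nuclei were counted on 4× images. Relative viability is the nuclei count in treated wells divided by the count in vehicle wells, and each value is the median of duplicate plates.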

IDH-C35 + Phenformin = compound: Cc1ccccc1C(C(=O)NC1CCCCC1)N(C(=O)Cn1ccnc1C)c1cccc(F)c1 [IDH-C35] + N=C(N)NC(=N)NCCc1ccccc1 [Phenformin] (partner 250 µM)
Method in brief: as §1

[2] = compound: CC1=C(C(=NN1)C)CC2=C(C3=C(S2)N(C(=O)N(C3=O)C)CC(C)C)C(=O)N4C[C@@H](CO4)O
Method in brief: (§2)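 MetaXpress counted nuclei in 4× images of lung cancer cell lines that had been fixed, permeabilised and Hoechst-stained in one step. Before that, cells in 1536-well plates were kept overnight at 37 °C, pinned with five √10-spaced library-drug doses on vehicle-anchored plates, and cultured 5 days without medium change. Viability takes treated-well nuclei over vehicle-well nuclei and uses the median across plates. Plates were accepted only at control CV below 25% and at least one doubling.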

IDH-C35 = compound: Cc1ccccc1C(C(=O)NC1CCCCC1)N(C(=O)Cn1ccnc1C)c1cccc(F)c1 [IDH-C35]
Method in brief: as §2

Cell Line | relative viability ([1]; first compound 0.0025 µM) | relative viability ([1]; first compound 0.007906 µM) | relative viability ([1]; first compound 0.025 µM) | relative viability ([1]; first compound 0.07906 µM) | relative viability ([1]; first compound 0.25 µM) | relative viability (IDH-C35 + Phenformin; first compound 0.08 µM) | relative viability (IDH-C35 + Phenformin; first compound 0.253 µM) | relative viability (IDH-C35 + Phenformin; first compound 0.8 µM) | relative viability (IDH-C35 + Phenformin; first compound 2.53 µM) | relative viability (IDH-C35 + Phenformin; first compound 8 µM) | relative viability ([2]; 0.0025 µM) | relative viability ([2]; 0.007906 µM) | relative viability ([2]; 0.025 µM) | relative viability ([2]; 0.07906 µM) | relative viability ([2]; 0.25 µM) | relative viability (IDH-C35; 0.08 µM) | relative viability (IDH-C35; 0.253 µM) | relative viability (IDH-C35; 0.8 µM) | relative viability (IDH-C35; 2.53 µM) | relative viability (IDH-C35; 8 µM)
NCI-H2126 | 0.852 | 0.877 | 0.882 | 0.829 | 0.826 | 0.529 | 0.548 | 0.525 | 0.525 | 0.483 | 1.05 | 1.01 | 1 | 0.935 | 1.06 | 1.01 | 1.02 | 0.965 | 0.937 | 0.92
LXF-289 | 0.885 | 0.904 | 0.94 | 0.935 | 1 | 0.543 | 0.507 | 0.524 | 0.508 | 0.517 | 1.02 | 1.02 | 0.975 | 0.971 | 1.02 | 1.02 | 1 | 1.02 | 0.99 | 0.997
NCI-H2009 | 1.23 | 1.21 | 1.11 | 1.18 | 1.22 | 0.56 | 0.498 | 0.521 | 0.451 | 0.481 | 1.07 | 1.08 | 0.963 | 1.09 | 1.09 | 1.03 | 1.03 | 1.01 | 0.988 | 0.946
NCI-H2405 | 0.795 | 0.652 |  | 0.983 | 0.864 | 0.419 | 0.394 | 0.41 | 0.384 | 0.363 | 1.1 | 1.04 | 0.653 | 0.921 | 0.962 | 1.05 | 1 | 0.971 | 0.996 | 1.02
NCI-H1755 | 1.05 | 1.03 | 1 | 1 | 1.06 | 0.605 | 0.614 | 0.65 | 0.639 | 0.649 | 1.03 | 1 | 1.03 | 0.989 | 1.03 | 1.05 | 0.961 | 0.968 | 1.03 | 1.01
HCC-78 | 0.834 | 0.743 | 0.868 | 0.716 | 0.768 | 0.608 | 0.682 | 0.644 | 0.798 | 0.745 | 1.08 | 1.14 | 0.845 | 0.91 | 0.832 | 0.925 | 0.979 | 0.896 | 0.998 | 0.928
LOU-NH91 | 0.773 | 0.604 | 0.776 | 0.809 | 0.788 | 0.78 | 0.784 | 0.685 | 0.752 | 0.497 | 1 | 0.989 | 1.01 | 1.12 | 1.03 | 0.945 | 0.986 | 0.987 | 0.917 | 0.96
NCI-H3122 | 1.02 | 1.04 | 0.996 | 1.01 | 0.995 | 0.391 | 0.372 | 0.4 | 0.376 | 0.359 | 1.01 | 0.971 | 0.99 | 1.01 | 1.03 | 0.999 | 1.02 | 1.01 | 0.985 | 0.973
HCC-827 | 0.983 | 1.08 | 1.03 | 1.04 | 1.04 | 0.425 | 0.348 | 0.384 | 0.397 | 0.406 | 0.904 | 1.08 | 1.06 | 1.04 | 1.06 | 1.06 | 0.934 | 1.04 | 0.991 | 1.02
SK-LU-1 | 0.717 | 0.662 | 0.528 | 0.744 | 0.545 | 0.604 | 0.541 | 0.558 | 0.628 | 0.527 | 0.914 | 0.789 | 0.634 | 0.714 | 0.615 | 1.01 | 0.986 | 1.1 | 1.05 | 1.01
NCI-H1975 | 1.13 | 1.18 | 1.15 | 1.19 | 1.21 | 0.411 | 0.406 | 0.401 | 0.425 | 0.401 | 1.07 | 0.997 | 0.873 | 0.988 | 1.02 | 0.968 | 1.01 | 0.986 | 1.05 | 0.966
NCI-H1651 | 1.11 | 1.06 | 1.01 | 0.912 | 1.05 | 0.338 | 0.292 | 0.362 | 0.344 | 0.296 | 0.962 | 1.08 | 0.986 | 0.963 | 0.993 | 0.939 | 0.947 | 0.921 | 1 | 0.959
NCI-H441 | 0.473 | 0.577 | 0.686 | 0.763 | 0.678 | 1.07 | 0.866 | 0.72 | 1.01 | 0.807 | 1 | 1.05 | 0.901 | 1.08 | 1.13 | 1.11 | 0.892 | 1 | 0.982 | 0.909
LCLC-97TM1 | 0.394 | 0.613 | 0.404 | 0.373 | 0.467 | 0.388 | 0.453 | 0.465 | 0.407 | 0.346 | 1.05 | 1.13 | 0.98 | 0.957 | 1.02 | 0.807 | 1.03 | 0.936 |  | 0.91
NCI-H727 | 0.44 | 0.36 | 0.344 | 0.364 | 0.439 | 0.471 | 0.525 | 0.509 | 0.493 | 0.579 | 1.07 | 1 | 1 | 0.875 | 0.964 | 0.81 | 0.98 | 1.01 | 0.979 | 1.01
NCI-H1355 | 0.955 | 0.96 | 1.02 | 0.853 | 0.894 | 0.52 | 0.438 | 0.424 | 0.466 | 0.395 | 1.08 | 1.03 | 0.994 | 0.993 | 0.952 | 0.978 | 0.971 | 0.961 | 0.915 | 0.944
HOP-62 | 1.15 | 1.03 | 0.857 | 1.08 | 0.857 | 0.718 | 0.649 | 0.634 | 0.618 | 0.677 | 0.962 | 0.976 | 0.953 | 0.977 | 1.17 | 1.03 | 1.03 | 0.957 | 0.81 | 0.964
NCI-H2085 | 1.22 | 1.12 | 1.06 | 1.12 | 1.22 | 0.748 | 0.737 | 0.714 | 0.767 | 0.595 | 0.992 | 0.954 | 0.939 | 0.981 | 0.793 | 1.01 | 1 | 0.957 | 1.09 | 0.969
